In the assay the test system is H3K27 methylation in G401 cell. Kind of assay: ELISA (H3K27 methylation) assay. Conditions: Homo sapiens, G-401; ELISA Qualified assay (H3K27 methylation); read-out: (c) IC50 (μM), ELISA Qualified. In kind it is cell-based. The text has this:
ELISA (H3K27 Methylation) Assay
For orientation: An ELISA detects its analyte on a solid surface through an enzyme-linked reagent.
In the case of `Cc1nn(C[C@H](C)O)c(C)c1-c1cnc(NCc2c(F)ccc3c2CCO3)n2cnnc12` [Example 187, (2S)-1-(4-(5-(((5-fluoro-2,3-dihydrobenzofuran-4-yl)methyl)amino)-[1,2,4]triazolo[4,3-c]pyrimidin-8-yl)-3,5-dimethyl-1H-pyrazol-1-yl)propan-2-ol], the 50% inhibitory concentration (IC50) (in general, the concentration at which inhibition is half-maximal) was 0.012 µM.
With `Cc1c(-c2cnc(NCc3c(F)ccc4c3CCO4)n3cnnc23)cnn1C(C)C` [Example 188, N-((5-fluoro-2,3-dihydrobenzofuran-4-yl)methyl)-8-(1-isopropyl-5-methyl-1H-pyrazol-4-yl)-[1,2,4]triazolo[4,3-c]pyrimidin-5-amine], the IC50 came to 0.0036 µM.
For the compound `Cc1c(-c2cnc(NCc3c(F)ccc4c3CCO4)n3cnnc23)cnn1CCO` [Example 189, 2-(4-(5-(((5-fluoro-2,3-dihydrobenzofuran-4-yl)methyl)amino)-[1,2,4]triazolo[4,3-c]pyrimidin-8-yl)-5-methyl-1H-pyrazol-1-yl)ethanol], the 50% inhibitory concentration (IC50) turned out to be 0.0052 µM.
Turning to `Cc1nn(CCO)cc1-c1cnc(NCc2c(F)ccc3c2CCO3)n2cnnc12` [Example 190, 2-(4-(5-(((5-fluoro-2,3-dihydrobenzofuran-4-yl)methyl)amino)-[1,2,4]triazolo[4,3-c]pyrimidin-8-yl)-3-methyl-1H-pyrazol-1-yl)ethanol], the IC50 came out at 0.0025 µM.
With `Fc1ccc2c(c1CNc1ncc(-c3cncnc3C(F)F)c3nncn13)CCO2` [Example 191, 8-(4-(difluoromethyl)pyrimidin-5-yl)-N-((5-fluoro-2,3-dihydrobenzofuran-4-yl)methyl)-[1,2,4]triazolo[4,3-c]pyrimidin-5-amine], the 50% inhibitory concentration (IC50) is 0.0344 µM.
The value for `Fc1ccc2c(c1CNc1ncc(-c3ccnn3C3CC3)c3nncn13)CCO2` [Example 192, 8-(1-cyclopropyl-1H-pyrazol-5-yl)-N-((5-fluoro-2,3-dihydrobenzofuran-4-yl)methyl)-[1,2,4]triazolo[4,3-c]pyrimidin-5-amine] was 0.0104 µM.
Turning to `FCc1ncccc1-c1cnc(NCc2c(F)ccc3c2CCO3)n2cnnc12` [Example 193, N-((5-fluoro-2,3-dihydrobenzofuran-4-yl)methyl)-8-(2-(fluoromethyl)pyridin-3-yl)-[1,2,4]triazolo[4,3-c]pyrimidin-5-amine], the IC50 amounted to 0.0054 µM.
Turning to `Cc1cc(-c2cnc(NCc3c(F)ccc4c3CCO4)n3cnnc23)c(C)cn1` [Example 194, 8-(2,5-dimethylpyridin-4-yl)-N-((5-fluoro-2,3-dihydrobenzofuran-4-yl)methyl)-[1,2,4]triazolo[4,3-c]pyrimidin-5-amine], the IC50 came to 0.0241 µM.
Consider `Cc1nn(C)cc1-c1cnc(NCc2c(F)ccc3c2CCO3)n2cnnc12` [Example 195, 8-(1,3-dimethyl-1H-pyrazol-4-yl)-N-((5-fluoro-2,3-dihydrobenzofuran-4-yl)methyl)-[1,2,4]triazolo[4,3-c]pyrimidin-5-amine], for which the IC50 worked out at 0.0024 µM.
Take `CCOc1cc(C)c(-c2cnc(NCc3c(F)ccc4c3CCO4)n3cnnc23)cn1` [Example 196, 8-(6-ethoxy-4-methylpyridin-3-yl)-N-((5-fluoro-2,3-dihydrobenzofuran-4-yl)methyl)-[1,2,4]triazolo[4,3-c]pyrimidin-5-amine]: the half-inhibitory concentration (IC50) turned out to be 0.0263 µM.
For `Cc1cc(OC(F)F)ncc1-c1cnc(NCc2c(F)ccc3c2CCO3)n2cnnc12` [Example 197, 8-(6-(difluoromethoxy)-4-methylpyridin-3-yl)-N-((5-fluoro-2,3-dihydrobenzofuran-4-yl)methyl)-[1,2,4]triazolo[4,3-c]pyrimidin-5-amine], the 50% inhibitory concentration (IC50) worked out at 0.0149 µM.
On to `Cc1cnc(C(F)F)cc1-c1cnc(NCc2c(F)ccc3c2CCO3)n2cnnc12` [Example 198, 8-(2-(difluoromethyl)-5-methylpyridin-4-yl)-N-((5-fluoro-2,3-dihydrobenzofuran-4-yl)methyl)-[1,2,4]triazolo[4,3-c]pyrimidin-5-amine], for which the 50% inhibitory concentration (IC50) was found to be 0.0078 µM.

The values above are taken from patent publication US11207325B2, “Triazolopyrimidine compounds and uses thereof” (Novartis AG, priority 2014, dated 2021).
